Test results reported in US7534871B2, “Preparation and use of carbohydrate-based bicyclic ring structures with antimicrobial and cytostatic activity” (Kemin Pharma B.V.B.A., priority 2004, dated 2009).
Converted amounts (≈) assume the structure as drawn. Like-named read-outs stand apart in the source and are kept apart here.

How the values were obtained:
[1] = test system: P. aeruginosa ATCC27853 LMG16217; experiment: Anti-bacterial activity, Bioscreen C growth curve: P. aeruginosa; format: cell-based, Pseudomonas aeruginosa; conditions: Pseudomonas aeruginosa; 25 PPM; 35° C., 16 hours; negative control = 100; read-out: % of growth at 25 PPM compared to the negative control, P. aeruginosa ATCC27853 LMG16217
Procedure: (§1) For the determination of the anti-bacterial and anti-fungal activity the Bioscreen C Analyser Labsystems, Finland, was used. This is an automated reader-incubator. It measures growth continuously by vertical photometry (optical density), processes the data and provides a print out of the results. The area under the growth curve is automatically determined via the Biolink software.
(§2) The inoculum size of the bacteria is standardized to approximately 5×10^5 CFU/ml.
(§3) For bacteria, the 100-honey-well plates containing test chemical, Mueller-Hinton broth and inoculum (=sample) are incubated at 35° C. for 16 hours. Also wells without inoculum are incubated (=blanco). Yeasts are incubated 35° C. for 24 hours in RPMI 1640+MOPS buffer at 165 mM. Moulds also in RPMI 1640+MOPS buffer at 165 mM are incubated 25° C. for 5 days. All micro-organisms are screened against a known concentration of the reference antibiotics or antimycotics such as vancomycin, penicillin G, gentamicin or amphotericin B. The growth curve and the area under the growth curve can be determined using the Biolink software; this is illustrated in FIG. 1.
(§4) The area of the blanco is subtracted from the area of the sample, this number (delta) gives us an indication of the biological activity of the molecules tested and can be expressed as a % of growth at a specific dose compared to a negative control that has a value of 100, illustrated in FIG. 2. Screening of each dose of a specific compound is repeated 5 times. The dose used for all new molecules in all tests is 25 PPM or 25 μg/ml.
(§5) In Table 4 the results of the anti-bacterial activity is given for the new molecules. The micro-organisms used are Staphylococcus aureus, MRSA, VRE, Enterococcus faecalis, Salmonella typhimurium and Pseudomonas aeruginosa.

[2] = test system: S. aureus ATTC29213 LMG10147; experiment: Anti-bacterial activity, Bioscreen C growth curve: S. aureus; format: cell-based; conditions: Staphylococcus aureus, 35° C., 16 hours, negative control = 100, read-out: % of growth at 25 PPM compared to the negative control, S. aureus ATTC29213 LMG10147
Procedure: as §1, §2, §3, §4, §5

VV = experiment: microbe, parasite or virus in culture; format: cell-based; conditions: Orthopoxvirus vaccinia, E6SM, read-out: EC50 VV (E6SM)
[3] = test system: human T-lymphocyte cells (CEM/0); experiment: Cytostatic activity: inhibition of proliferation of CEM/0 cells; format: cell-based; conditions: CCRF-CEM, 50% inhibitory concentration, cell proliferation, read-out: IC50 CEM/0
Procedure: (§6) The compounds were tested for anti-tumor activity via the inhibitory effects on the proliferation of murine leukemia cells (L1210/0), murine mammary carcinoma cells (FM3A), human T-lymphocyte cells (Molt4/C8, CEM/0) and human cervix carcinoma cells (HeLa).

[4] = test system: murine leukemia cells (L1210/0); experiment: Cytostatic activity: inhibition of proliferation of L1210/0 cells; format: cell-based; conditions: Mus musculus, L1210/0; 50% inhibitory concentration, cell proliferation; read-out: IC50 L1210/0
Procedure: as §6

[5] = test system: E. faecalis ATTC29212 LMG 8222; experiment: Anti-bacterial activity, Bioscreen C growth curve: E. faecalis; format: cell-based; conditions: Enterococcus faecalis, LMG8222, 35° C., 16 hours, negative control = 100, read-out: % of growth at 25 PPM compared to the negative control, E. faecalis ATTC29212 LMG 8222
Procedure: as §1, §2, §3, §4, §5

CMV AD-169 strain = experiment: Anti-CMV activity: plaque reduction in HEL cells, AD-169 strain; format: cell-based, human cytomegalovirus (CMV); conditions: Human betaherpesvirus 5, AD169, HEL, reduce virus plaque formation by 50%, virus input 100 PFU
HIV-2 (ROD) = experiment: Anti-viral activity: HIV-2-induced cytopathicity in human CEM cell cultures; format: cell-based; conditions: Human immunodeficiency virus 2, CCRF-CEM; concentration required to inhibit HIV-induced cytopathicity in human CEM cell cultures by 50%
VRE ATCC700221 = experiment: Anti-bacterial activity, Bioscreen C growth curve: VRE; format: cell-based, vancomycin-resistant Enterococcus (VRE); conditions: Enterococcus, 35° C., 16 hours, negative control = 100, read-out: % of growth at 25 PPM compared to the negative control, VRE ATCC700221
Procedure: as §1, §2, §3, §4, §5

VZV OKA = experiment: microbe, parasite or virus in culture; format: cell-based, varicella zoster virus (VZV); conditions: Human alphaherpesvirus 3, HEL, read-out: EC50 VZV (HEL) OKA
[6] = test system: murine mammary carcinoma cells (FM3A); experiment: Cytostatic activity: inhibition of proliferation of FM3A cells; format: cell-based; conditions: Mus musculus, 50% inhibitory concentration, cell proliferation, read-out: IC50 FM3A/0
Procedure: as §6

[7] = test system: S. typhimurium ATTC700408; experiment: Anti-bacterial activity, Bioscreen C growth curve: S. typhimurium; format: cell-based; conditions: Salmonella enterica, LMG16217 / TYPHIMURIUM, 35° C., 16 hours, negative control = 100, read-out: % of growth at 25 PPM compared to the negative control, S. typhimurium ATTC700408 LMG16217
Procedure: as §1, §2, §3, §4, §5

[8] = test system: human cervix carcinoma cells (HeLa); experiment: Cytostatic activity: inhibition of proliferation of HeLa cells; format: cell-based; conditions: 50% inhibitory concentration, cell proliferation
Procedure: as §6

HSV-1 (KOS) = experiment: Anti-viral activity: HSV-1-induced cytopathicity in human embryo fibroblast E6SM cell cultures; format: cell-based, herpes simplex virus (HSV); conditions: Human alphaherpesvirus 1, 50%
VZV YS = experiment: Anti-viral activity: VZV-induced plaque formation in HEL cell cultures, YS strain; format: cell-based, varicella zoster virus (VZV); conditions: Human alphaherpesvirus 3, VZV-induced plaque formation in human embryonic lung HEL cell cultures, 50%
HSV-2 (G) = experiment: Anti-viral activity: HSV-2-induced cytopathicity in human embryo fibroblast E6SM cell cultures; format: cell-based, herpes simplex virus (HSV); conditions: Human alphaherpesvirus 2, 50%
[9] = test system: Microsporum gypseum IHEM 3999 - ATCC 14683; experiment: Anti-fungal activity, Bioscreen C growth curve: Microsporum gypseum (mold); format: cell-based; conditions: Nannizzia gypsea, ATCC14683, 120 h; 25 PPM; 25° C., 5 days; negative control = 100; read-out: % of growth at a dose of 25 PPM compared to the negative control, Microsporum gypseum IHEM 3999 - ATCC 14683
Procedure: as §1
The inoculum size of the mould is standardized to 0.4-5.0×10^4 CFU/ml.
as §3, §4
(§7) In Table 5 the anti-fungal activity is given for the new molecules. The micro-organisms used were Candida albicans (a typical yeast) and Microsporum gypseum (a typical mold).
(§8) Also for the determination of the anti-fungal activity the Bioscreen C Analyser Labsystems Oy, Finland was used. It measures growth continuously by vertical photometry (optical density), processes the data and provides a print out of the results. The area under the growth curve is automatically determined via the Biolink software.
(§9) The inoculum size of the yeast is standardized to 0.5-2.5×10^3 CFU/ml. The inoculum size of the mould is standardized to 0.4-5.0×10^4 CFU/ml. Yeasts are incubated 35° C. for 24 hours in RPMI 1640+MOPS buffer at 165 mM. Moulds also in RPMI 1640+MOPS buffer at 165 mM are incubated 25° C. for 5 days.
(§10) As a control, all micro-organisms are screened against some reference antibiotics with known MIC. Screening of each dose of a specific compound is repeated 5 times.

[10] = test system: human T-lymphocyte cells (Molt4/C8); experiment: Cytostatic activity: inhibition of proliferation of Molt4/C8 cells; format: cell-based; conditions: Molt4/C8, 50% inhibitory concentration, cell proliferation, read-out: IC50 Molt4/C8
Procedure: as §6

[11] = test system: Candida albicans IHEM 10284 - ATCC 24433; experiment: Anti-fungal activity, Bioscreen C growth curve: Candida albicans (yeast); format: cell-based; conditions: Candida albicans, ATCC24433; 25 PPM; 35° C., 24 hours; negative control = 100; read-out: % of growth at a dose of 25 PPM compared to the negative control, Candida albicans IHEM 10284 - ATCC 24433
Procedure: as §1
The inoculum size of the yeast is standardized to 0.5-2.5×10^3 CFU/ml.
as §3, §4, §7, §8, §9, §10

HIV-1 (IIIB) = experiment: microbe, parasite or virus in culture; format: cell-based; conditions: Human immunodeficiency virus 1, IIIB, CCRF-CEM; concentration required to inhibit HIV-induced cytopathicity in human CEM cell cultures by 50%
MRSA ATCC33591 = experiment: Anti-bacterial activity, Bioscreen C growth curve: MRSA; format: cell-based, methicillin-resistant Staphylococcus aureus (MRSA); conditions: Staphylococcus aureus, ATCC 33591 / LMG10147 / MRSA; 25 PPM; 35° C., 16 hours; negative control = 100; read-out: % of growth at 25 PPM compared to the negative control, MRSA ATCC33591 LMG10147
Procedure: as §1, §2, §3, §4, §5

[12] = Cytotoxicity: inhibition of HEL cell growth (CC50); format: cell-based; conditions: human; concentration required to reduce cell growth by 50%; HEL cells, three days
Procedure: The medium was then replaced by MEM containing various concentrations of the test compound. After three days incubation at 37° C., when the cell monolayer was 70% confluent, the cell number was determined with the Coulter counter. The minimum cytotoxic concentration was defined as the concentration required to reduce cell growth by 50%.

CMV Davis strain = experiment: Anti-CMV activity: plaque reduction in HEL cells, Davis strain; format: cell-based, human cytomegalovirus (CMV); conditions: Human betaherpesvirus 5, HEL; Table 6; reduce virus plaque formation by 50%; virus input 100 PFU; read-out: Anti-CMV activity IC50 Davis strain
HEL cells = experiment: Cytotoxicity: alteration of cell morphology (MCC); format: cell-based, human; conditions: minimum cytotoxic concentration that causes a microscopically detectable alteration of cell morphology
[13] = Table 2, read-out: IC50 CMV AD-169 Strain

| SMILES | activity at 25 ppm [1] | activity at 25 ppm [2] | EC50 (VV) | IC50 [3] | IC50 [4] | activity at 25 ppm [5] | IC50 (CMV AD-169 strain; [13]) | EC50 (HIV-2 (ROD)) | activity at 25 ppm (VRE ATCC700221) | EC50 (VZV OKA) | IC50 [6] | activity at 25 ppm [7] | IC50 [8] | EC50 (HSV-1 (KOS)) | EC50 (VZV YS) | EC50 (HSV-2 (G)) | activity at 25 ppm [9] | IC50 [10] | activity at 25 ppm [11] | EC50 (HIV-1 (IIIB)) | other results |
| --- | --- | --- | --- | --- | --- | --- | --- | --- | --- | --- | --- | --- | --- | --- | --- | --- | --- | --- | --- | --- | --- |
| CO[C@@H]1[C@@H](OC)[C@H](Sc2ccccc2)O[C@@H]2COC(=O)CC/C=C/CCC(=O)O[C@@H]12 [KPE00001002] | 92.2% | 93.2% | > 16 µg/mL | > 200 µg/mL | > 200 µg/mL | 94.9% | > 20 µg/mL | > 20 µg/mL | 94% | > 20 µg/mL | > 200 µg/mL | 93.7% | > 200 µg/mL | > 16 µg/mL | > 50 µg/mL | > 16 µg/mL | 64% | > 200 µg/mL | 105% | > 100 µg/mL | activity at 25 ppm (MRSA ATCC33591): 100% |
| CO[C@@H]1[C@@H](OC)[C@H](Sc2ccccc2)O[C@@H]2COCC=CCO[C@@H]12 [KPE00001014] | 96.7% | 105% | > 400 µg/mL | > 200 µg/mL | > 200 µg/mL | 95% | > 50 µg/mL | > 100 µg/mL | 88.4% | > 50 µg/mL | > 200 µg/mL | 87.2% | > 200 µg/mL | > 400 µg/mL | > 50 µg/mL | 240 µg/mL (≈ 681 µM) | 69% | > 200 µg/mL | 96% | > 100 µg/mL | activity at 25 ppm (MRSA ATCC33591): 113% |
| CO[C@@H]1[C@@H](OC)[C@H](c2ccccc2)O[C@@H]2COC(=O)CC/C=C/CCC(=O)O[C@@H]12 [KPE00001018] | 59.8% | 100% | > 16 µg/mL | 132 ± 13 µg/mL (≈ 326 µM) | > 200 µg/mL | 94.9% | > 20 µg/mL | > 100 µg/mL | 94.5% | > 50 µg/mL | > 200 µg/mL | 96.6% | > 200 µg/mL | > 16 µg/mL | > 50 µg/mL | > 16 µg/mL | 79% | > 200 µg/mL | 93.5% | > 20 µg/mL | activity at 25 ppm (MRSA ATCC33591): 100% |
| c1ccc(CO[C@@H]2[C@@H](OCc3ccccc3)[C@H](Sc3ccccc3)O[C@@H]3CO[C@@H](c4ccccc4)O[C@@H]23)cc1 [KPE00001044] | – | – | > 3.2 µg/mL | > 200 µg/mL | > 200 µg/mL | – | – | – | – | > 2 µg/mL | 130 ± 61 µg/mL (≈ 240 µM) | – | – | > 3.2 µg/mL | > 2 µg/mL | > 3.2 µg/mL | – | > 200 µg/mL | – | – | CC50 at 3 days [12]: > 50 µg/mL; IC50 (CMV Davis strain): > 2 µg/mL; Cytotoxicity Cell morphology (MCC) (HEL cells): 5 μg/ml; IC50 (CMV AD-169 strain; Table 6, read-out: Anti-CMV activity IC50 AD-169 strain): > 2 µg/mL |
